The text below walks through data of patent US20210137913A1, “THERAPEUTIC AGENT FOR ASPIRATION PNEUMONIA, LUNG SUPPURATION, OR LUNG ABSCESS” (KYORIN PHARMACEUTICAL CO., LTD., priority 2017, published 2021).

One experiment relates to anaerobic bacteria. Conditions: Non Patent Literature 2; cited from earlier work.
Experiment [1] deals with subjects suspected of having aspiration pneumonia. Kind of experiment: Test Example 1: clinical efficacy in aspiration pneumonia. Format: in vivo, human. The procedure: (§1) The investigational new drug A was administered intravenously for 7 to 14 days to 13 subjects suspected of having aspiration pneumonia meeting the following criteria.
A clear infiltrative shadow appearing acutely on chest X-rays or CT images taken within 48 hours before the start of administration at the age of 16 years or older, is observed.
Confirmation of clear aspiration, choking or dysphagia, has a disease or history of disease with potential dysphagia.
(§2) The patient presents with symptoms and inflammation that are characteristic of aspiration pneumonia. On the first day of the start of administration, two doses of investigational new drug A (300 mg/day) were used, and on the second day of administration, one dose of investigational new drug A (150 mg/day) was used, and then the same dose (150 mg/day) was maintained. The administration of the injection was performed intravenously over about 1 hour per dose.
(§3) The clinical efficacy of Test Examples 1 and 2 were determined by setting the following criteria, based on the criteria for clinical efficacy of pneumonia described in Clinical evaluation method of new antibacterial drugs in respiratory infections (2nd edition), Japanese Journal of Chemotherapy. 2012; 60(1): 30-45. 9). The primary endpoint was the efficacy rate at the end of administration or discontinuation of investigational new drug A.
(§4) The end of administration herein means the evaluation date on the day after the administration of the investigational new drug A is completed. Moreover, the time of discontinuation means the date on which the evaluation was performed within 3 days from the last administration date or the discontinuation judgment date of the investigational new drug A. Furthermore, “the end of administration or the time of discontinuation” is expressed as End of Treatment (EOT). In addition, CRP is an abbreviation for C-reactive protein, and is one of the acute phase reactants produced in a short time in response to various inflammations. It is a useful index for the observation of therapeutic effects since it increases in a few hours in bacterial infections such as pneumonia and decreases rapidly as the inflammation subsides.
(§5) “Early therapeutic effect” was defined as a case in which significant improvement is observed 3 days after administration (regardless of whether administration was completed or continued after 4 days).
(§6) Samples for microbiological evaluation were collected before starting an appropriate alternative antibacterial treatment.
(§7) In addition, if the discontinuation date is the start date of administration (day 0) or the second day of administration (day 1), the determination of early drug efficacy was regarded as unnecessary. In the case of the third day of administration (day 2) or later, it was determined using the test results at the time of discontinuation.
(§8) When the treatment was discontinued after the next day after the end of the administration, the clinical efficacy at the end of the administration was determined, and the determination of the clinical efficacy at the time of discontinuation was not required. In addition, it was judged as “Ineffective” when the treatment was discontinued or when it was changed to an alternative antibacterial treatment after the end of administration of the investigational new drug. […] When changing to an alternative antibacterial treatment, in principle, prescribed tests, examinations and judgments at the end of treatment were made before the change.
(§9) The efficacy rate is the value obtained by the following formula.
(§10) Efficacy rate=(number of subjects rated as “Effective”[…]number of subjects rated as “Effective” or “Ineffective”)×100(%)

The test system of experiment [2] is genus Parvimonas P. micra. Nature of the experiment: Microbiological efficacy according to the causative bacteria (Aspiration pneumonia). Format: in vivo. The conditions noted are these: case number 1. As for the experimental part: as §1, §2, §6
(§11) Table 4 and Table 5 show the microbiological efficacy of Test Examples 1 and 2 according to the causative bacteria.

The subject of experiment [3] is Anaerobe. The experiment is described as above. The format is in vivo. The procedure:
as §1, §2, §6, §11

The test system of experiment [4] is genus Actinomyces A. odontolyticus. The description is as above. The conditions noted are these: case number 1. Format: in vivo. The procedure:
as §1, §2, §6

Experiment [5] deals with genus Prevotella Prevotella sp. The experiment is described as above. The format is in vivo. The conditions noted are these: case number 6. The procedure:
as §1, §2, §6

Experiment [6] deals with genus Prevotella P. buccae. The description is as above. The conditions noted are these: case number 1. The format is in vivo. As for the experimental part: as §1, §2, §6
In experiment [7] the test system is genus Prevotella P. intermedia. Described as above. The format is in vivo. The conditions noted are these: case number 1. As for the experimental part:
as §1, §2, §6

Experiment [8] has as its system genus Bacteroides Bacteroides sp. The experiment is described as above. The format is in vivo. The conditions noted are these: case number 2. The procedure: as §1, §2, §6
For experiment [9], the system named is genus Veillonella Veillonella sp. The description is as above. Format: in vivo. Conditions: case number 7. The procedure: as §1, §2, §6
Experiment [10] deals with subjects suspected of having lung suppuration or lung abscess. Nature of the experiment: Test Example 2: clinical efficacy in lung suppuration or lung abscess. Format: in vivo, human. The procedure: (§12) The investigational new drug A was administered intravenously for 7 to 14 days to 11 subjects suspected of having lung suppuration or lung abscess meeting the following criteria.
On chest X-rays or CT images taken within 48 hours before the start of administration at the age of 16 years or older, a massive shadow or a shadow with cavities inside (nodular shadow, mass shadow) is observed. Regardless of the presence of a niveau due to pus accumulation.
The patient presents with symptoms and inflammation that are characteristic of lung suppuration or lung abscess.
(§13) On the first day of the start of administration, two doses of investigational new drug A (300 mg/day) were used, and on the second day of administration, one dose of investigational new drug A (150 mg/day) was used, and then the same dose (150 mg/day) was maintained. The administration of the injection was performed intravenously over about 1 hour per dose.
as §3, §4, §5, §6, §7, §8, §9, §10

The test system of experiment [11] is genus Fusobacterium F. necrophorum. Nature of the experiment: Microbiological efficacy according to the causative bacteria (Lung suppuration/lung abscess). Format: in vivo. The conditions noted are these: case number 1. The procedure: as §12, §13, §6
The subject of experiment [12] is genus Bacteroide B. fragilis. The description is as above. The format is in vivo. Conditions: case number 1. The procedure:
as §12, §13, §6

In experiment [13] the test system is genus Porphyromonas P. gingivalis. Described as above. Format: in vivo. The conditions noted are these: case number 1. As for the experimental part:
as §12, §13, §6

For experiment [14], the system named is genus Prevotella P. oralis. The description is as above. Format: in vivo. The conditions noted are these: case number 1. The procedure:
as §12, §13, §6

The test system of experiment [15] is genus Prevotella P. melaninogenica. The experiment is described as above. The format is in vivo. The conditions noted are these: case number 1. The procedure: as §12, §13, §6
Experiment [16] concerns genus Prevotella Prevotella sp. Described as above. The format is in vivo. The conditions noted are these: case number 1. As for the experimental part:
as §12, §13, §6

Experiment [17] deals with genus Prevotella P. intermedia. The description is as above. The format is in vivo. The conditions noted are these: case number 1. The procedure: as §12, §13, §6
The subject of experiment [18] is genus Leptotrichia Leptotrichia buccalis. The experiment is described as above. The conditions noted are these: case number 1. Format: in vivo. As for the experimental part: as §12, §13, §6
For experiment [19], the system named is genus Fusobacterium F. nucleatum. Described as above. Format: in vivo. Conditions: case number 4. As for the experimental part: as §12, §13, §6
Experiment [20] concerns genus Veillonella Veillonella sp. The experiment is described as above. Format: in vivo. Conditions: case number 2. The procedure:
as §12, §13, §6

In experiment [21] the test system is genus Parvimonas P. micra. Described as above. The format is in vivo. Conditions: case number 2. As for the experimental part:
as §12, §13, §6, §11

Experiment [22] concerns Anaerobe. Described as above. Format: in vivo. The procedure:
as §12, §13, §6, §11

[23] abbreviates: Test Example 1, aspiration pneumonia, 3 days after administration, number of subjects.
The mark [24] stands for this setting: Test Example 1, aspiration pneumonia, EOT, number of subjects.
Setting [25] is: conclusion from Table 2 and Table 3.
[26] abbreviates: aspiration pneumonia, Anaerobe total, case number 19.
The mark [27] stands for this setting: Test Example 2, lung suppuration or lung abscess, 3 days after administration, number of subjects.
Setting [28] is: Test Example 2, lung suppuration or lung abscess, EOT, number of subjects.
The mark [29] stands for this setting: lung suppuration/lung abscess, Anaerobe total, case number 16.

As for `C[C@H]1COc2c(C3(N)CC3)c(F)cc3c(=O)c(C(=O)O)cn1c23` [pazufloxacin], the “antibacterial activity against anaerobic bacteria (in words)” value with anaerobic bacteria is “insufficient antibacterial activity”.

On to `COc1c(N2C[C@H](CNC3CC3)[C@H](F)C2)c(F)cc2c(=O)c(C(=O)O)cn(CCF)c12` [investigational new drug A, 7-[(3S,4S)-3-{(cyclopropylamino)methyl}-4-fluoropyrrolidin-1-yl]-6-fluoro-1-(2-fluoroethyl)-8-methoxy-4-oxo-1,4-dihydroquinoline-3-carboxylic acid], for which the “Early drug efficacy evaluation, Clinical efficacy: Effective” value in experiment [1] (Test Example 1, aspiration pneumonia, 13 subjects, i.v. 300 mg day 1 then 150 mg/day, 3 days after administration, number of subjects) is recorded as 12; in experiment [10] (Test Example 2, lung suppuration or lung abscess, 11 subjects, i.v. 300 mg day 1 then 150 mg/day, 3 days after administration, number of subjects) it was 9. The “Early drug efficacy evaluation: Efficacy rate” value in experiment [1] (Test Example 1, aspiration pneumonia, 3 days after administration) is reported as 92%; in experiment [10] (Test Example 2, lung suppuration or lung abscess, 3 days after administration), 82%. Moreover, the entries for the “Early drug efficacy evaluation, Clinical efficacy: Ineffective” value in experiment [1] (setting [23]) and in [10] (setting [27]) were 1 and 2, respectively. Also, the “Early drug efficacy evaluation, Clinical efficacy: Undeterminable” value in experiment [1] (setting [23]) and in experiment [10] (setting [27]) was 0 each time. For the same compound, the “End of Treatment: Efficacy rate” value is reported as 100% in experiment [1] (Test Example 1, aspiration pneumonia, EOT); 100% in experiment [1] (Test Example 1, aspiration pneumonia, EOT, listed as 7-[(3S,4S)-3-{(cyclopropylamino)methyl}-4-fluoropyrrolidin-1-yl]-6-fluoro-1-(2-f)); 91% in experiment [10] (Test Example 2, lung suppuration or lung abscess, EOT); 91% in experiment [10] (Test Example 2, lung suppuration or lung abscess, EOT, listed as 7-[(3S,4S)-3-{(cyclopropylamino)methyl}-4-fluoropyrrolidin-1-yl]-6-fluoro-1-(2-f)). The “End of Treatment, Clinical efficacy: Ineffective” value in [1] (setting [24]) worked out at 0; in experiment [10] (setting [28]) it was 1. The “End of Treatment, Clinical efficacy: Undeterminable” value in experiment [1] (setting [24]) is 1; in [10] (setting [28]), 0. The “End of Treatment, Clinical efficacy: Effective” value is 12 in experiment [1] (Test Example 1, aspiration pneumonia, end of administration or discontinuation (EOT), number of subjects) and 10 in experiment [10] (setting [28]). Also, the “therapeutic effect on aspiration pneumonia (in words)” value in experiment [1] (setting [25]) is on record as “high therapeutic effect”. The “Result: Eradicated” value is listed as 1 in experiment [2]; 17 with Anaerobe [3] (setting [26]); 1 in experiment [4]; 6 in experiment [5]; 1 in experiment [6]; 1 in [7]. The “Result: Eradicated” value is given as 2 in experiment [8]; 5 in experiment [9]; 1 in experiment [11]; 1 in experiment [12]; 1 in experiment [13]; 1 in experiment [14]. Besides, the “Result: Eradicated” value in experiment [15] was 1; in experiment [16], 1; in experiment [17], 0; in [18] it was 1; in experiment [19], 4; in [20], 2. Moreover, the “Result: Eradicated” value came out at 2 in experiment [21] and 15 with Anaerobe [22] (setting [29]). The “Result: Persisted” value in experiment [2] was found to be 0; in the experiment on Anaerobe [3] (setting [26]), 2; in [4] it was 0; in experiment [5], 0; in experiment [6], 0; in experiment [7], 0. The “Result: Persisted” value in [8] turned out to be 0; in [9], 2; in experiment [11] it was 0; in experiment [12], 0; in [13], 0; in experiment [14], 0. The “Result: Persisted” value in experiment [15] amounted to 0; in experiment [16], 0; in experiment [17], 1; in experiment [18] it was 0; in experiment [19] it was 0; in experiment [20] it was 0. Also, the “Result: Persisted” value in [21] is on record as 0; in the experiment on Anaerobe [22] (setting [29]) it was 1. Further, in the experiment with Anaerobe [3] (conclusion from Table 4), the “antibacterial effect on the causative bacteria of aspiration pneumonia (in words)” value is “high antibacterial effect”. Also, the “therapeutic effect on lung suppuration or lung abscess (in words)” value in [10] (setting [25]) was “high therapeutic effect”. Besides, the “antibacterial effect on the causative bacteria of lung suppuration or lung abscess (in words)” value in the experiment on Anaerobe [22] (conclusion from Table 5) was “high antibacterial effect”.

As to `O=C(O)c1cn(C2CC2)c2cc(N3CCNCC3)c(F)cc2c1=O` [ciprofloxacin], the “antibacterial activity against anaerobic bacteria (in words)” value with anaerobic bacteria was “insufficient antibacterial activity”.
